Data published in patent US20170044222A1, “Anti-Microbial Coatings and Devices” (priority 2015, published 2017).
Where “and” joins values, the source holds several entries; their conditions need not be identical. Equal values may be shown once. Entries after “also recorded” stand apart in the source; their conditions may differ. Ends that are not written are not given here.

Key:
epithelial cells = conditions: cited from earlier work
keratinocyte = conditions: cited from earlier work
[1] = QCM-D mass attachment, layer thickness and areal mass of tether/peptide layers (Sauerbrey and Voigt-Kelvin); format: physicochemical; conditions: for Chrysophsin-1 attachment ng Voigt-Kelvin / Chrysophsin-1 attachment ng Sauerbrey: 10 μM peptide, 23° C; for Chrysophsin-1 attachment ng Voigt-Kelvin: Voigt-Kelvin viscoelastic model; for Chrysophsin-1 attachment ng Sauerbrey: mean of 3rd-11th overtones ± standard error; for C-CHY1 areal mass (ng/cm^2) Sauerbrey: Sauerbrey estimation divided by crystal surface area; for C-CHY1 areal mass (ng/cm^2) Voigt-Kelvin / PEG/C-CHY1 layer thickness (nm) Voigt-Kelvin: Voigt-Kelvin model; for C-CHY1 areal mass (ng/cm^2) Voigt-Kelvin: includes PEG spacer, attached C-CHY1 and trapped buffer; for PEG/C-CHY1 layer thickness (nm) Voigt-Kelvin: tether plus peptide film, or physically-adsorbed CHY1 film
Description: Referring to FIG. 1, the surface is functionalized with the anti-microbial peptide via a flexible linker molecule and exposed to bacteria in the QCM-D using QCM-D sensors as the substrate. Referring to FIG. 2 QCM-D was used to monitor covalent attachment in real-time of the PEG spacer molecule followed by introduction of the C-CHY1 peptide to the functionalized SiO2 surface (FIG. 2). According to the Sauerbrey calculation, the Δm due to PEG spacers is between 2 and 100 ng per crystal (Table 1, below; FIG. 3). The mass of PEG attached decreases with increasing tether length (FIG. 3). PEGylated surfaces show a rigid surface (ΔD values from +1×10^−6 to +2×10^−6 Hz) compared to the bulk fluid baseline, validating the use of Eqn. 1 and 2 for PEG layer calculations. When C-CHY1 is introduced, there is a rapid decrease of Δf corresponding to a Δm of 0.8 to 2.2 μg (Table 1) bound to the surface. This step is accompanied by a large increase in ΔD from near +2×10^−6 to +20×10^−6 Hz after the introduction of C-CHY1. Comparatively, CHY1 introduction leads to a Δf decrease corresponding a Δm of about 0.4 μg of CHY1 being physically-adsorbed on the surface.
Thus, parameters of the system were modeled using the Voigt-Kelvin extended viscoelastic model in Q-Tools software (Biolin Scientific, Stockholm, Sweden). This model corrects the Sauerbrey estimations for higher energy dissipation by adding terms to the Δf relation to mass (Eqn. 3) and ΔD relation to film rigidity (Eqn. 4).
Where ηL is the viscosity of the bulk liquid assumed to be water (kg/m·s); δL, and δf are the decay lengths of the acoustic wave in the bulk liquid and film (m), respectively; mq and mf […], respectively; ρf is the film density (kg/m^3). The layer was modeled to get numerical outputs for layer viscosity, density, and shear modulus (ηm, ρm, and μm), and film thickness. All overtones were modeled at once. The bulk liquid, predominantly PBS or PBS/EDTA, was assumed to have the same viscosity and density as water at 23° C. Model step size and output ranges were changed based on calculated theoretical values using estimated extended molecule size, and the lowest chi square value (χ^2) was taken. Once values of thickness (nm) and density (kg/m^3) were found with the model, the two were multiplied to calculate areal mass in ng/cm^2.
QCM-D: Covalent Linking of C-CHY1. SiO2-coated quartz crystal sensors from Biolin Scientific (Stockholm, Sweden) were used as immobilization platforms for the modified C-CHY1. Before use, SiO2 sensors were cleaned in the QCM-D at 40° C. using ethanol, DI water, 2% sodium dodecyl sulfate (w/v), DI water again, and then nitrogen dried. Lastly, sensor surfaces were treated for 2 min using an oxygen plasma cleaner (SPI Supplies, PA USA) to both clean and functionalize the surface. The SiO2 crystals were then silanized by submerging in a 10% (v/v) (3-Aminopropyl)-trimethoxysilane (APTMS) in methanol solution for 20 min. Each sensor was then rinsed twice thoroughly with methanol and DI water and placed in each QCM-D chamber.
Changes in frequency (Δf, Hz) and dissipation (ΔD, ×10-6 Hz) at the 3rd, 5th, 7th, 9th and 11th overtones were monitored at a constant 23° C. in all chambers using a Q-Sense E4 QCM-D system (Biolin Scientific, Stockholm, Sweden). All flow rates for the solutions were at 0.1 mL/min unless otherwise noted, and all volumes given are on a per chamber basis. PBS/EDTA (pH 7.2) buffer was used to establish a stable baseline measurement. Maleimide PEG N-hydroxysuccinimide ester molecules (MAL-PEG-NHS) with molecular weights (MW) of 866 (ThermoScientific, Waltham Mass., USA), 2000, or 7500 (JenKem Technology USA Inc., Allen, Tex. USA) were purchased. These will be referred to as PEG 866, PEG 2000 and PEG 7500, respectively. One mL of 100 μM MAL-PEG-NHS was flowed through the QCM-D and subsequently incubated for 30 min. Crystals were then rinsed with 1.2 mL of the PBS/EDTA (pH 7.2) buffer. […]

[2] = system: Escherichia coli HB101 (ATCC 33694); assay: Bacterial mortality on peptide-coated QCM-D sensors (LIVE/DEAD BacLight), E. coli; format: cell-based; conditions: for mortality of E. coli: 1 hour exposure to surface-bound peptide, PEG binding at 23° C; for bactericidal activity against E. coli compared across tether lengths: C-CHY1 tethered via PEG 866, 2000 or 7500, 1 hour exposure
Description: (§1) Bacterial Strains and Culturing. Escherichia coli HB101 (ATCC 33694) and Staphylococcus aureus (ATCC 48366) were cultured overnight in Luria-Bertani broth (20 g/L). For QCM-D and toxicity studies, cells were harvested at the late logarithmic phase in their growth curve, as confirmed by absorbance measurements (OD(600)=0.7-1.0 arbitrary units) (Thermo Scientific USA, Waltham, Mass. USA). The cells were centrifuged at 1284×g (Centrific Thermo Scientific, Waltham, Mass. USA) and re-suspended in 0.01 M, pH 7.2 phosphate buffered saline (PBS) (Sigma Aldrich, St. Louis, Mo. USA) twice, and then diluted 100-fold to approximately 10^8 cfu/mL.
(§2) Changes in frequency (Δf, Hz) and dissipation (ΔD, ×10-6 Hz) at the 3rd, 5th, 7th, 9th and 11th overtones were monitored at a constant 23° C. in all chambers using a Q-Sense E4 QCM-D system (Biolin Scientific, Stockholm, Sweden). All flow rates for the solutions were at 0.1 mL/min unless otherwise noted, and all volumes given are on a per chamber basis. PBS/EDTA (pH 7.2) buffer was used to establish a stable baseline measurement. Maleimide PEG N-hydroxysuccinimide ester molecules (MAL-PEG-NHS) with molecular weights (MW) of 866 (ThermoScientific, Waltham Mass., USA), 2000, or 7500 (JenKem Technology USA Inc., Allen, Tex. USA) were purchased. These will be referred to as PEG 866, PEG 2000 and PEG 7500, respectively. One mL of 100 μM MAL-PEG-NHS was flowed through the QCM-D and subsequently incubated for 30 min. Crystals were then rinsed with 1.2 mL of the PBS/EDTA (pH 7.2) buffer. Similarly, 1.25 mL of 10 μM C-CHY1 solution was then flown over the sensors and allowed to incubate for 30 min. To rinse excess C-CHY1 off the surface and prepare for the introduction of 2 mL bacteria, a 45 min PBS rinse at 0.3 mL/min was first flowed through the QCM-D. The dilute bacterial solution was allowed to incubate for 1 hour, followed by a final 2 mL PBS (pH 7.2) rinse. The crystals were removed from the chambers and placed in individual petri dishes containing 0.85% (w/v) NaCl solution for bacterial viability testing.
QCM-D Control Experiments: Physical Adsorption of CHY1. Similarly, SiO2-coated sensors were used for physical adsorption of unmodified CHY1 and were prepared as described above. For this experiment there was no APTMS functionalization or PEG flow, thus, after cleaning, the crystals were placed immediately into the QCM-D, PBS (pH 7.2) was used to establish a baseline and 1.25 mL of 10 μM CHY1 solution was introduced. Then, flow was stopped and CHY1 was incubated for 30 min. […]
(§3) Bacterial Mortality. Bacterial mortality was determined immediately after the final rinse of the QCM-D experiment. […]

[3] = system: Staphylococcus aureus (ATCC 48366); assay: Bacterial mortality on peptide-coated QCM-D sensors (LIVE/DEAD BacLight), S. aureus; format: cell-based; conditions: for bactericidal activity against S. aureus compared across tether lengths: C-CHY1 tethered via PEG 866, 2000 or 7500, 1 hour exposure; for mortality of S. aureus: 1 hour exposure to surface-bound peptide, PEG binding at 23° C
Description: as §1, §2
QCM-D Control Experiments: Physical Adsorption of CHY1. Similarly, SiO2-coated sensors were used for physical adsorption of unmodified CHY1 and were prepared as described above. For this experiment there was no APTMS functionalization or PEG flow, thus, after cleaning, the crystals were placed immediately into the QCM-D, PBS (pH 7.2) was used to establish a baseline and 1.25 mL of 10 μM CHY1 solution was introduced. Then, flow was stopped and CHY1 was incubated for 30 min. The rest of the protocol described in the previous section was then followed, including the 0.3 mL/min PBS rinse, bacterial flow, bacterial incubation and final PBS rinse. The crystals were removed from the chambers and placed in individual petri dishes containing 0.85% (w/v) NaCl solution for bacterial viability testing. For the next type of control, crystals that had never been coated with APTMS were cleaned and placed into the QCM-D chambers without functionalization. Starting with a PBS rinse, the crystals were exposed to bacteria solution for 1 hour and then rinsed before imaging. For the APTMS control, crystals were cleaned and functionalized with APTMS. Then the procedure continued starting with a PBS rinse (pH 7.2), bacteria introduction, incubation, and a final rinse before imaging. […]
as §3

Compound | concentration with significant toxicity against epithelial cells (epithelial cells) | concentration that negatively affects keratinocyte viability (keratinocyte) | Chrysophsin-1 attachment ng Voigt-Kelvin ([1]; QCM-D) | Chrysophsin-1 attachment ng Sauerbrey ([1]; QCM-D) | C-CHY1 areal mass (ng/cm^2) Sauerbrey ([1]; QCM-D) | C-CHY1 areal mass (ng/cm^2) Voigt-Kelvin ([1]; QCM-D) | mortality of E. coli [2] | PEG/C-CHY1 layer thickness (nm) Voigt-Kelvin ([1]; QCM-D) | bactericidal activity against E. coli compared across tether lengths [2] | bactericidal activity against S. aureus compared across tether lengths [3] | extension of layer: modelled thickness as percent of theoretical maximum thickness ([1]; Voigt-Kelvin thickness vs theoretical maximum) | mortality of S. aureus [3] | mortality of S. aureus after temperature-optimized PEG binding ([3]; PEG 7500 binding at 55° C, back to 23° C for C-CHY1 binding and 1 hour S. aureus incubation) | PEG/C-CHY1 layer thickness (nm) Voigt-Kelvin ([1]; QCM-D, listed as No Tether (PHYS-ADSORB)) | Δm bound to the surface on peptide introduction ([1]; QCM-D, from Δf decrease on peptide flow, before rinse) | peptide remaining adsorbed after rinse ([1]; physical adsorption, after PBS rinse)
CC[C@H](C)[C@H](NC(=O)CN)C(=O)NCC(=O)N[C@@H](C)C(=O)N[C@H](C(=O)N[C@@H](CC(C)C)C(=O)N[C@@H](CCCCN)C(=O)N[C@H](C(=O)N[C@@H](CC(C)C)C(=O)N[C@H](C(=O)N[C@H](C(=O)NCC(=O)N[C@@H](CC(C)C)C(=O)N1CCC[C@H]1C(=O)N[C@@H](C)C(=O)N[C@@H](CC(C)C)C(=O)N[C@H](C(=O)N[C@@H](CO)C(=O)N[C@@H](Cc1c[nH]c2ccccc12)C(=O)N[C@H](C(=O)N[C@@H](CCCCN)C(=O)N[C@@H](CCCNC(=N)N)C(=O)N[C@@H](CCCCN)C(=O)N[C@@H](CCCNC(=N)N)C(=O)N[C@@H](CCC(N)=O)C(=O)N[C@@H](CCC(N)=O)C(N)=O)[C@@H](C)CC)[C@@H](C)CC)[C@@H](C)O)[C@@H](C)O)C(C)C)C(C)C [melittin] | 1.2 | – | – | – | – | – | – | – | – | – | – | – | – | – | – | –
LL-37: human derived cathelicidin peptide | – | 10 | – | – | – | – | – | – | – | – | – | – | – | – | – | –
Maleimide PEG N-hydroxysuccinimide ester [PEG 866] | – | – | 835.2 ± 168 ng | 874.0 ± 48.8 ng | 1113 ± 62.2 ng/cm^2 | 1063±215 ng/cm^2 | 46±2.3% | – | – | – | – | – | – | – | – | –
Maleimide PEG N-hydroxysuccinimide ester [PEG 2000] | – | – | 2284 ± 113 ng | 2238 ± 60.4 ng | 2850 ± 76.9 ng/cm^2 | 2909±144 ng/cm^2 | – | 17.6±1.3 nm and 17.6±1.32 nm | lowest ability to kill | lowest ability to kill | – | – | – | – | – | –
Maleimide PEG N-hydroxysuccinimide ester [PEG 7500] | – | – | 1870 ± 176 ng | 1753 ± 43.9 ng | 2232 ± 55.0 ng/cm^2 | 2381±223 ng/cm^2 and 2381 ± 224 ng/cm^2 | – | 21.9±1.86 nm | most efficient bactericidal activity; also recorded: highest activity | most efficient bactericidal activity; also recorded: highest activity | 38% | 64±4.5% | 91±6.9% | – | – | –
FFGWLIKGAIHAGKAIHGLIHRRRH [CHY1, Chrysophsin-1, reference compound] | – | – | 373.3 ± 58.6 ng | 204.9 ± 7.99 ng | 260.9 ± 10.2 ng/cm^2 | 475.3 ± 74.6 ng/cm^2 | 52.3±1.2% | 2.5±0.5 nm | – | – | – | 56.7±1.1% | – | 2.50 ± 0.49 nm | about 0.4 μg | about 50%
